Reference: the supplement of paper PMC10307832

Columns and labels:
Assay in all cases: relative viability (nuclei count vs DMSO), 5 days (fraction); higher = more cells survive
NCI-H838 = test system: NCI-H838
How it was run: (§1)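 Lung cancer cell lines, seeded in 1536-well plates, were treated the following day by pin tool with a single drug or with five library-drug doses (not always all listed) in √10 steps on top of a fixed anchor-drug dose. Cells were fixed and nuclei stained in one step after 5 days, and nuclei were counted. Relative viability is the nuclei count for treated wells divided by that for vehicle wells, reported as medians of duplicate plates.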

NCI-H520 = test system: NCI-H520
How it was run: as §1

RERF-LC-KJ = test system: RERF-LC-KJ
How it was run: as §1

NCI-H1648 = test system: NCI-H1648
How it was run: as §1

NCI-H1651 = test system: NCI-H1651
How it was run: as §1

NCI-H650 = test system: NCI-H650
How it was run: as §1

NCI-H1623 = test system: NCI-H1623
How it was run: as §1

NCI-H1944 = test system: NCI-H1944
How it was run: as §1

A549 = test system: A549
How it was run: as §1

O=c1cc(N2CCOCC2)oc2c(-c3cccc4c3sc3ccccc34)cccc12 + COc1cccc2cc(-c3nc([C@H]4CC[C@H](C(=O)O)CC4)n4ncnc(N)c34)[nH]c12 [OSI-027] (partner 0.5 µM)
relative viability (NCI-H838; first compound 0.01 µM): 0.401 | relative viability (NCI-H838; first compound 0.03162 µM): 0.397 | relative viability (NCI-H838; first compound 0.1 µM): 0.389 | relative viability (NCI-H838; first compound 0.3162 µM): 0.42 | relative viability (NCI-H838; first compound 1 µM): 0.374 | relative viability (NCI-H520; first compound 0.01 µM): 0.284 | relative viability (NCI-H520; first compound 0.03162 µM): 0.299 | relative viability (NCI-H520; first compound 0.1 µM): 0.235 | relative viability (NCI-H520; first compound 0.3162 µM): 0.229 | relative viability (NCI-H520; first compound 1 µM): 0.323 | relative viability (RERF-LC-KJ; first compound 0.01 µM): 0.617 | relative viability (RERF-LC-KJ; first compound 0.03162 µM): 0.635 | relative viability (RERF-LC-KJ; first compound 0.1 µM): 0.6 | relative viability (RERF-LC-KJ; first compound 0.3162 µM): 0.615 | relative viability (RERF-LC-KJ; first compound 1 µM): 0.555 | relative viability (NCI-H1648; first compound 0.01 µM): 0.244 | relative viability (NCI-H1648; first compound 0.03162 µM): 0.253 | relative viability (NCI-H1648; first compound 0.1 µM): 0.239 | relative viability (NCI-H1648; first compound 0.3162 µM): 0.235 | relative viability (NCI-H1648; first compound 1 µM): 0.235 | relative viability (NCI-H1651; first compound 0.01 µM): 0.593 | relative viability (NCI-H1651; first compound 0.03162 µM): 0.704 | relative viability (NCI-H1651; first compound 0.1 µM): 0.668 | relative viability (NCI-H1651; first compound 0.3162 µM): 0.654 | relative viability (NCI-H1651; first compound 1 µM): 0.636 | relative viability (NCI-H650; first compound 0.03162 µM): 0.591 | relative viability (NCI-H650; first compound 0.1 µM): 0.391 | relative viability (NCI-H650; first compound 0.3162 µM): 0.598 | relative viability (NCI-H650; first compound 1 µM): 0.493 | relative viability (NCI-H1623; first compound 0.01 µM): 0.45 | relative viability (NCI-H1623; first compound 0.03162 µM): 0.477 | relative viability (NCI-H1623; first compound 0.1 µM): 0.362 | relative viability (NCI-H1623; first compound 0.3162 µM): 0.407 | relative viability (NCI-H1623; first compound 1 µM): 0.429 | relative viability (NCI-H1944; first compound 0.01 µM): 0.443 | relative viability (NCI-H1944; first compound 0.03162 µM): 0.436 | relative viability (NCI-H1944; first compound 0.1 µM): 0.429 | relative viability (NCI-H1944; first compound 0.3162 µM): 0.44 | relative viability (NCI-H1944; first compound 1 µM): 0.391

CCN(CC)CCCCNc1ncc2cc(-c3cc(OC)cc(OC)c3)c(NC(=O)NC(C)(C)C)nc2n1 + COc1cccc2cc(-c3nc([C@H]4CC[C@H](C(=O)O)CC4)n4ncnc(N)c34)[nH]c12 [OSI-027] (partner 0.5 µM)
relative viability (NCI-H838; first compound 0.01 µM): 0.373 | relative viability (NCI-H838; first compound 0.03162 µM): 0.39 | relative viability (NCI-H838; first compound 0.1 µM): 0.449 | relative viability (NCI-H838; first compound 0.3162 µM): 0.377 | relative viability (NCI-H838; first compound 1 µM): 0.273 | relative viability (NCI-H520; first compound 0.01 µM): 0.251 | relative viability (NCI-H520; first compound 0.03162 µM): 0.228 | relative viability (NCI-H520; first compound 0.1 µM): 0.259 | relative viability (NCI-H520; first compound 0.3162 µM): 0.192 | relative viability (NCI-H520; first compound 1 µM): 0.155 | relative viability (RERF-LC-KJ; first compound 0.01 µM): 0.549 | relative viability (RERF-LC-KJ; first compound 0.03162 µM): 0.678 | relative viability (RERF-LC-KJ; first compound 0.1 µM): 0.536 | relative viability (RERF-LC-KJ; first compound 0.3162 µM): 0.675 | relative viability (RERF-LC-KJ; first compound 1 µM): 0.515 | relative viability (NCI-H1648; first compound 0.01 µM): 0.311 | relative viability (NCI-H1648; first compound 0.03162 µM): 0.228 | relative viability (NCI-H1648; first compound 0.1 µM): 0.26 | relative viability (NCI-H1648; first compound 0.3162 µM): 0.24 | relative viability (NCI-H1648; first compound 1 µM): 0.243 | relative viability (NCI-H1651; first compound 0.01 µM): 0.7 | relative viability (NCI-H1651; first compound 0.03162 µM): 0.737 | relative viability (NCI-H1651; first compound 0.1 µM): 0.782 | relative viability (NCI-H1651; first compound 0.3162 µM): 0.79 | relative viability (NCI-H1651; first compound 1 µM): 0.695 | relative viability (NCI-H650; first compound 0.01 µM): 0.46 | relative viability (NCI-H650; first compound 0.03162 µM): 0.551 | relative viability (NCI-H650; first compound 0.1 µM): 0.589 | relative viability (NCI-H650; first compound 0.3162 µM): 0.605 | relative viability (NCI-H650; first compound 1 µM): 0.507 | relative viability (NCI-H1623; first compound 0.01 µM): 0.419 | relative viability (NCI-H1623; first compound 0.03162 µM): 0.385 | relative viability (NCI-H1623; first compound 0.1 µM): 0.381 | relative viability (NCI-H1623; first compound 0.3162 µM): 0.469 | relative viability (NCI-H1623; first compound 1 µM): 0.383 | relative viability (NCI-H1944; first compound 0.01 µM): 0.417 | relative viability (NCI-H1944; first compound 0.03162 µM): 0.449 | relative viability (NCI-H1944; first compound 0.1 µM): 0.437 | relative viability (NCI-H1944; first compound 0.3162 µM): 0.406 | relative viability (NCI-H1944; first compound 1 µM): 0.351

O=c1cc(-c2cccc3c2Sc2ccccc2S3)oc(N2CCOCC2)c1 + N=C(N)NC(=N)NCCc1ccccc1 [Phenformin] (partner 250 µM)
relative viability (NCI-H838; first compound 0.08 µM): 0.517 | relative viability (NCI-H838; first compound 0.253 µM): 0.726 | relative viability (NCI-H838; first compound 0.8 µM): 0.488 | relative viability (NCI-H838; first compound 2.53 µM): 0.531 | relative viability (NCI-H838; first compound 8 µM): 0.503 | relative viability (A549; first compound 0.08 µM): 0.202 | relative viability (A549; first compound 0.253 µM): 0.097 | relative viability (A549; first compound 0.8 µM): 0.315 | relative viability (A549; first compound 2.53 µM): 0.129 | relative viability (A549; first compound 8 µM): 0.28 | relative viability (NCI-H520; first compound 0.08 µM): 0.505 | relative viability (NCI-H520; first compound 0.253 µM): 0.507 | relative viability (NCI-H520; first compound 0.8 µM): 0.479 | relative viability (NCI-H520; first compound 2.53 µM): 0.372 | relative viability (NCI-H520; first compound 8 µM): 0.619 | relative viability (RERF-LC-KJ; first compound 0.08 µM): 0.4 | relative viability (RERF-LC-KJ; first compound 0.253 µM): 0.426 | relative viability (RERF-LC-KJ; first compound 0.8 µM): 0.465 | relative viability (RERF-LC-KJ; first compound 2.53 µM): 0.444 | relative viability (RERF-LC-KJ; first compound 8 µM): 0.406 | relative viability (NCI-H1651; first compound 0.08 µM): 0.342 | relative viability (NCI-H1651; first compound 0.253 µM): 0.526 | relative viability (NCI-H1651; first compound 0.8 µM): 0.423 | relative viability (NCI-H1651; first compound 2.53 µM): 0.362 | relative viability (NCI-H1651; first compound 8 µM): 0.299 | relative viability (NCI-H650; first compound 0.08 µM): 0.386 | relative viability (NCI-H650; first compound 0.253 µM): 0.437 | relative viability (NCI-H650; first compound 0.8 µM): 0.461 | relative viability (NCI-H650; first compound 8 µM): 0.452 | relative viability (NCI-H1623; first compound 0.08 µM): 0.603 | relative viability (NCI-H1623; first compound 0.253 µM): 0.68 | relative viability (NCI-H1623; first compound 0.8 µM): 0.593 | relative viability (NCI-H1623; first compound 2.53 µM): 0.535 | relative viability (NCI-H1623; first compound 8 µM): 0.576 | relative viability (NCI-H1944; first compound 0.08 µM): 0.192 | relative viability (NCI-H1944; first compound 0.253 µM): 0.21 | relative viability (NCI-H1944; first compound 0.8 µM): 0.186 | relative viability (NCI-H1944; first compound 2.53 µM): 0.168 | relative viability (NCI-H1944; first compound 8 µM): 0.22
